Reference: paper PMC2914685 (Analytical biochemistry, 2010)
No end group written: not given here.

What was measured:
Abl SH3 domain [1] = molecular target: T1, Abl SH3 domain (Homo sapiens, UniProt P00519); details: computationally predicted from the human proteome; ref [30]; [31] (Personal communication); cited from earlier work
Abl SH3 domain [2] = molecular target: T1, Abl SH3 domain; assay: Tetracycline repressor-based mammalian two-hybrid assay; format: cell-based; details: HEK 293 cells, 48 hours post-transfection, fluorescence microscopy, Figure 2
Abl SH3 domain (SH3-His) = assay: Abl SH3 domain Western blot-type detection; format: binding, human; details: fluorescence under UV 365 nm, estimated, data not shown
SH3-His = SH3-His (human, UniProt P00519 61-121); assay: fluorescence polarisation
Sequence of SH3-His (P00519 61-121): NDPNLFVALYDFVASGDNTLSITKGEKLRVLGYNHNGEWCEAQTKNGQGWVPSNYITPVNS

T1 sequence (P00519 61-121 limits assumed): as the sequence (P00519 61-121) above

Molecule	predicted binding to Abl SH3 domain (Abl SH3 domain [1])	interaction with Abl SH3 domain in vivo (AcGFP expression) (Abl SH3 domain [2])	also measured
AAAMQKPSLP [BOT1]	non-binding peptide	–	–
APAFPPPSPP [TOP1]	binding peptide	positive interaction	–
MGAGAPAFPPPSPP@EF-(GFP)-His6 [TOP1-DOPA-GFP]	–	–	lowest limit of detection of SH3-His (Abl SH3 domain (SH3-His)): about 0.5 μg
TetR-BOT1: TetR with dimerization domain replaced with BOT1 (AAAMQKPSLP; also: insert only, fused into TetR protein)	–	does not bind to TetR-SH3	–
APAFPPPSPP (also: FITC label, position not given here) [TOP1-FITC]	–	–	Kd (SH3-His): 16 ± 1 µM
